We go through six compounds from patent US20240010653A1, “Crystalline Forms of 4-amino-N-[4-(methoxymethyl)phenyl]-7-(1-methylcyclopropyl)-6-(3-morpholinoprop-1-yn-1-yl)-7H-pyrrolo[2,3-d]pyrimidine-5-carboxamide” (Helsinn Healthcare SA, priority 2020, published 2024).

Structures can show the parent of a compound that is named as a salt.

Common to all, as to type: physicochemical
A short description of series [1]: Uptake of water from air by dehydrated form, followed by VP-XRPD. To be noted: after vacuum 0.07 mbar; ambient condition, RH about 80%. The procedure: VP-XRPD measurements were performed on the Panalytical X'pert equipped with the Anton Paar TTK450 chamber which allowed for measurement of the powder in-situ at controlled temperature and/or under vacuum.
The first measurement was collected at RT and atmospheric pressure. The sample was then left for 15 minutes under vacuum (0.07 mbar).
The uptake of water by Form 1-bis was observed via XRPD by following the difference in the pattern in the range 2θ=25.5°-27-5° (see FIG. 5C). Under vacuum the highest peak is the peak at 2θ=26.7° while after exposure of the sample in air 2 minutes the highest is at 2θ=26.4°. The peak at 2θ=26.4° moves to 2θ=26.2° in 20 minutes. HM06 1:2 HCl crystalline Form 1-bis uptakes the water from the atmosphere as soon as the powder is exposed to the air, and it reaches the diffraction pattern of the starting material in 20 minutes (see […] 5D). This experiment was done in ambient condition with RH % of the room about at 80%.

Series [2] can be described thus: Storage stability, long term conditions 25° C. and 60% relative humidity. An excerpt: (§1) Samples of HM06 1:2 HCl Form 1 were subjected to accelerated storage conditions and long-term storage.
Table 25 sets forth the sample analysis at times 0, 3 months, 6 months, 9 months, 12 months, 18 months, and 24 months.

The nature of series [3]: Saturated solution in methanol. To be noted: room temperature. Here is the method:
A saturated solution of HM06 1:2 HCl Form 1 in methanol approx. 50 mg/mL was prepared and allowed to stir at room temperature overnight (18 hours). After this time, it was filtered and left to evaporate at 25° C./700 mbar. The preparation of the sample plate sealed with Kapton film was performed under 40-45% RH. Some very minor signals of Form 1 were present.

A short description of series [4]: Storage stability, accelerated conditions 40° C./75% relative humidity. To be noted: for HPLC assay (anhydrous) / HPLC purity: 12-HM06 / HPLC purity: impurity 12-HM06.il (RRT 0.92-.94) / HPLC purity: impurity RRT 0.56 / HPLC purity: impurity RRT 1.11 / HPLC purity: impurity RRT 1.20-1.24 / HPLC purity: impurity RRT 1.41-1.42 / Water content (KF) / XRPD: 40° C./75% relative humidity. The procedure: as §1
Samples of HM06 1:2 HCl Form 1 from the same lot were stored at 40° C. and 75% relative humidity for 24 months with testing at regular intervals.

The nature of series [5]: Solid form (polymorph) stability on storage, followed by XRPD. Conditions: for Form stability (XRPD) after storage in a sealed vial: seven days in a sealed vial. Here is the method:
The stability of Form 4-bis was assessed after seven days of storage in a sealed vial.
HM06 1:2 HCl Form 4 exposed powder was stored overnight at room temperature under 43% RH.
The stability of the HM06 1:2 HCl Form 5-bis sample was assessed after 18 hours exposed to air and after one week in a sealed vial, both at room temperature.
Form 5-bis was measured after 18 hours exposed powder at room temperature. The % RH was approx. of 45%.
These changes could not be associated with conversion into one of the other isolated polymorphs observed during this study: thus, the sample was considered not stable.
HM06 1:2 HCl Form 5-bis was measured after seven days at room temperature in a sealed vial.
Form 6 was collected after evaporation of HM06 1:2 HCl Form 1 in a 1:1 acetonitrile/water solution at room temperature under low pressure.

In the case of `COCc1ccc(NC(=O)c2c(C#CCN3CCOCC3)n(C3(C)CC3)c3ncnc(N)c23)cc1` [HM06 1:2 HCl Form 1-bis, 4-amino-N-[4-(methoxymethyl)phenyl]-7-(1-methylcyclopropyl)-6-(3-morpholinoprop-1-yn-1-yl)-7H-pyrrolo[2,3-d]pyrimidine-5-carboxamide], the “Time in air to reach the diffraction pattern of the starting material (Form 1) by uptake of water” value in series [1] was found to be 20 min.
For `COCc1ccc(NC(=O)c2c(C#CCN3CCOCC3)n(C3(C)CC3)c3ncnc(N)c23)cc1` [HM06 1:2 HCl Form 1, 4-amino-N-[4-(methoxymethyl)phenyl]-7-(1-methylcyclopropyl)-6-(3-morpholinoprop-1-yn-1-yl)-7H-pyrrolo[2,3-d]pyrimidine-5-carboxamide], in series [2] (0 months), the “HPLC assay (anhydrous)” value came to 99%, the “HPLC purity: 12-HM06” value is 99%, the “HPLC purity: impurity 12-HM06.il (RRT 0.92-0.94)” value (“HPLC purity … (RRT 0.92-0.94)” below) came out at 0.51% and the “HPLC purity: impurity RRT 1.20-1.24” value stood at 0.20%. In series [2] (0 months), the “HPLC purity: impurity RRT 1.41-1.42” value is on record as 0.06%, the “Water content (KF)” value is on record as 6% and the XRPD result is “Crystalline”. Moreover, in series [2] (3 months), the “HPLC assay (anhydrous)” value came to 102%, the “HPLC purity: 12-HM06” value came out at 99%, the “HPLC purity … (RRT 0.92-0.94)” value was 0.51% and the “HPLC purity: impurity RRT 1.20-1.24” value is given as 0.20%. In addition, in series [2] (3 months), the “HPLC purity: impurity RRT 1.41-1.42” value is 0.06%, the “Water content (KF)” value came to 5% and the XRPD result was “Crystalline”. Besides, in series [2] (6 months), the “HPLC assay (anhydrous)” value is given as 99%, the “HPLC purity: 12-HM06” value is given as 99%, the “HPLC purity … (RRT 0.92-0.94)” value is recorded as 0.51% and the “HPLC purity: impurity RRT 1.20-1.24” value stood at 0.20%. Also, in series [2] (6 months), the “HPLC purity: impurity RRT 1.41-1.42” value is on record as 0.06%, the “Water content (KF)” value was 5% and the XRPD entry is “Crystalline”. In series [2] (9 months), the “HPLC assay (anhydrous)” value is reported as 99%, the “HPLC purity: 12-HM06” value stood at 99%, the “HPLC purity … (RRT 0.92-0.94)” value was found to be 0.51% and the “HPLC purity: impurity RRT 1.20-1.24” value was determined as 0.20%. Besides, in series [2] (9 months), the “HPLC purity: impurity RRT 1.41-1.42” value is 0.06%, the “Water content (KF)” value was 5% and the XRPD result is given as “Crystalline”. Moreover, in series [2] (12 months), the “HPLC assay (anhydrous)” value turned out to be 99%, the “HPLC purity: 12-HM06” value is on record as 99%, the “HPLC purity … (RRT 0.92-0.94)” value was 0.51% and the “HPLC purity: impurity RRT 1.20-1.24” value is listed as 0.20%. Besides, in series [2] (12 months), the “HPLC purity: impurity RRT 1.41-1.42” value is on record as 0.06%, the “Water content (KF)” value turned out to be 6% and the XRPD entry is “Crystalline”. In addition, in series [2] (18 months), the “HPLC assay (anhydrous)” value was 97%, the “HPLC purity: 12-HM06” value is 99%, the “HPLC purity … (RRT 0.92-0.94)” value came to 0.51% and the “HPLC purity: impurity RRT 0.85” value is reported as 0.05%. Moreover, in series [2] (18 months), the “HPLC purity: impurity RRT 1.11” value was 0.05%, the “HPLC purity: impurity RRT 1.20-1.24” value is on record as 0.19%, the “HPLC purity: impurity RRT 1.41-1.42” value is 0.06% and the “Water content (KF)” value is 5%. For the same compound, the XRPD result in series [2] (18 months) is on record as “Crystalline”. Further, in series [2] (24 months), the “HPLC assay (anhydrous)” value is reported as 100%, the “HPLC purity: 12-HM06” value stood at 99%, the “HPLC purity … (RRT 0.92-0.94)” value is recorded as 0.51% and the “HPLC purity: impurity RRT 0.85” value was determined as 0.06%. In series [2] (24 months), the “HPLC purity: impurity RRT 1.20-1.24” value is 0.19%, the “HPLC purity: impurity RRT 1.41-1.42” value came to 0.06%, the “Water content (KF)” value came to 6% and the XRPD result is given as “Crystalline”. In addition, the “Concentration of saturated solution in methanol” value in series [3] is recorded as “approx. 50 mg/mL”. For the same compound, in series [4] (0 months), the “HPLC assay (anhydrous)” value is 99%, the “HPLC purity: 12-HM06” value is given as 99%, the “HPLC purity: impurity 12-HM06.il (RRT 0.92-.94)” value (shortened to “HPLC purity … (RRT 0.92-.94)”) stood at 0.51% and the “HPLC purity: impurity RRT 0.56” value is reported as “not detected”. Besides, in series [4] (0 months), the “HPLC purity: impurity RRT 1.11” value is “not detected”, the “HPLC purity: impurity RRT 1.20-1.24” value turned out to be 0.20%, the “HPLC purity: impurity RRT 1.41-1.42” value is 0.06% and the “Water content (KF)” value was found to be 6%. In series [4] (0 months), the XRPD result is “Crystalline”. In addition, in series [4] (1 month), the “HPLC assay (anhydrous)” value is given as 100%, the “HPLC purity: 12-HM06” value is 99%, the “HPLC purity … (RRT 0.92-.94)” value came out at 0.51% and the “HPLC purity: impurity RRT 0.56” value is “not detected”. Further, in series [4] (1 month), the “HPLC purity: impurity RRT 1.11” value is given as “not detected”, the “HPLC purity: impurity RRT 1.20-1.24” value worked out at 0.20%, the “HPLC purity: impurity RRT 1.41-1.42” value is 0.06% and the “Water content (KF)” value came to 6%. Moreover, the XRPD entry in series [4] (1 month) was “Crystalline”. For the same compound, in series [4] (3 months), the “HPLC assay (anhydrous)” value worked out at 102%, the “HPLC purity: 12-HM06” value is 99%, the “HPLC purity … (RRT 0.92-.94)” value is 0.51% and the “HPLC purity: impurity RRT 0.56” value was “not detected”. Further, in series [4] (3 months), the “HPLC purity: impurity RRT 1.11” value is given as “not detected”, the “HPLC purity: impurity RRT 1.20-1.24” value is given as 0.20%, the “HPLC purity: impurity RRT 1.41-1.42” value is 0.06% and the “Water content (KF)” value was 5%. Besides, the XRPD entry in series [4] (3 months) is recorded as “Crystalline”. Further, in series [4] (6 months), the “HPLC assay (anhydrous)” value came out at 98%, the “HPLC purity: 12-HM06” value is recorded as 99%, the “HPLC purity … (RRT 0.92-.94)” value is given as 0.51% and the “HPLC purity: impurity RRT 0.56” value was 0.05%. Moreover, in series [4] (6 months), the “HPLC purity: impurity RRT 1.11” value was found to be 0.05%, the “HPLC purity: impurity RRT 1.20-1.24” value is 0.19%, the “HPLC purity: impurity RRT 1.41-1.42” value is recorded as 0.06% and the “Water content (KF)” value was determined as 5%. Besides, the XRPD result in series [4] (6 months) is listed as “Crystalline”. The “Storage stability, overall result” value in series [4] (accelerated storage conditions and long-term storage) is “remained stable and crystalline”.
For `COCc1ccc(NC(=O)c2c(C#CCN3CCOCC3)n(C3(C)CC3)c3ncnc(N)c23)cc1` [HM06 1:2 HCl Form 5-bis, 4-amino-N-[4-(methoxymethyl)phenyl]-7-(1-methylcyclopropyl)-6-(3-morpholinoprop-1-yn-1-yl)-7H-pyrrolo[2,3-d]pyrimidine-5-carboxamide], in series [5] (18 hours exposed to air at room temperature, approx. 45% RH), the “Form stability (XRPD) of exposed powder” value is “not stable”. The “Form stability (XRPD) after storage in a sealed vial” value in series [5] is “started to convert into Form 1”.
On to `COCc1ccc(NC(=O)c2c(C#CCN3CCOCC3)n(C3(C)CC3)c3ncnc(N)c23)cc1` [HM06 1:2 HCl Form 4, 4-amino-N-[4-(methoxymethyl)phenyl]-7-(1-methylcyclopropyl)-6-(3-morpholinoprop-1-yn-1-yl)-7H-pyrrolo[2,3-d]pyrimidine-5-carboxamide], for which, in series [5] (stored overnight at room temperature under 43% RH), the “Form stability (XRPD) of exposed powder” value is “No significant modifications”.
Take `COCc1ccc(NC(=O)c2c(C#CCN3CCOCC3)n(C3(C)CC3)c3ncnc(N)c23)cc1` [HM06 1:2 HCl Form 4-bis, 4-amino-N-[4-(methoxymethyl)phenyl]-7-(1-methylcyclopropyl)-6-(3-morpholinoprop-1-yn-1-yl)-7H-pyrrolo[2,3-d]pyrimidine-5-carboxamide]: the “Form stability (XRPD) after storage in a sealed vial” value in series [5] (listed as Form 4-bis) is “complete conversion into Form 1”.
For the compound `COCc1ccc(NC(=O)c2c(C#CCN3CCOCC3)n(C3(C)CC3)c3ncnc(N)c23)cc1` [HM06 1:2 HCl Form 6, 4-amino-N-[4-(methoxymethyl)phenyl]-7-(1-methylcyclopropyl)-6-(3-morpholinoprop-1-yn-1-yl)-7H-pyrrolo[2,3-d]pyrimidine-5-carboxamide], the “Form stability on storage” value in series [5] (6 days of storage, room temperature under low pressure) was “conversion into Form 1”.
